The target in assay [1] is T1, Helios (Homo sapiens, UniProt Q96SW2+Q9UKS7).
T1 construct: fluorescently labelled antibodies against Helios and Ikaros; endogenous in cells; host or cells: Jurkat cells
The assay is described as follows: Helios Cellular Degradation Assay (flow cytometry, Helios-PE antibody staining, 72 h). Format: cell-based. The following applies: Jurkat cells, 72 h incubation, flow cytometry; for Dmax: Jurkat, read-out: Helios Dmax. An outline of the steps: (§1)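 Jurkat cells (80,000/well, RPMI+10% FBS) were exposed to compound for 72 h at 37 °C, then fixed, permeabilized and co-stained for 1 h with Ikaros-Alexa488 and Helios-PE antibodies. Intracellular protein levels were read by flow cytometry.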
Background: In flow cytometry, cells or beads pass a laser one at a time.

Assay [2] deals with T2, Ikaros (Homo sapiens, UniProt Q13422).
T2 construct: fluorescently labelled antibodies against Helios and Ikaros; endogenous in cells; host or cells: Jurkat cells
T2 sequence (Q96SW2 whole entry partner): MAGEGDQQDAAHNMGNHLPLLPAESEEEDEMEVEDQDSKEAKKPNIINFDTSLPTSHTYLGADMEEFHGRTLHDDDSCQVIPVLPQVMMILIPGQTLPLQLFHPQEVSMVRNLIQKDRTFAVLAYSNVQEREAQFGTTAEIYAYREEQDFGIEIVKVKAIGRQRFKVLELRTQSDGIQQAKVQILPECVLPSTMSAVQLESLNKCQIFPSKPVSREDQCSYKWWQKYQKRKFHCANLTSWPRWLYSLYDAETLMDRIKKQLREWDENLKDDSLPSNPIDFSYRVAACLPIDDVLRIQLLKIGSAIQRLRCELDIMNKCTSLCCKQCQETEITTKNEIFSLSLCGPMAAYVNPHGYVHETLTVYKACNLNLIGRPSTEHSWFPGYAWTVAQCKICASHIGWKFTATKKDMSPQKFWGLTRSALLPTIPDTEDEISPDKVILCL
T2 sequence (Q16531 whole entry partner): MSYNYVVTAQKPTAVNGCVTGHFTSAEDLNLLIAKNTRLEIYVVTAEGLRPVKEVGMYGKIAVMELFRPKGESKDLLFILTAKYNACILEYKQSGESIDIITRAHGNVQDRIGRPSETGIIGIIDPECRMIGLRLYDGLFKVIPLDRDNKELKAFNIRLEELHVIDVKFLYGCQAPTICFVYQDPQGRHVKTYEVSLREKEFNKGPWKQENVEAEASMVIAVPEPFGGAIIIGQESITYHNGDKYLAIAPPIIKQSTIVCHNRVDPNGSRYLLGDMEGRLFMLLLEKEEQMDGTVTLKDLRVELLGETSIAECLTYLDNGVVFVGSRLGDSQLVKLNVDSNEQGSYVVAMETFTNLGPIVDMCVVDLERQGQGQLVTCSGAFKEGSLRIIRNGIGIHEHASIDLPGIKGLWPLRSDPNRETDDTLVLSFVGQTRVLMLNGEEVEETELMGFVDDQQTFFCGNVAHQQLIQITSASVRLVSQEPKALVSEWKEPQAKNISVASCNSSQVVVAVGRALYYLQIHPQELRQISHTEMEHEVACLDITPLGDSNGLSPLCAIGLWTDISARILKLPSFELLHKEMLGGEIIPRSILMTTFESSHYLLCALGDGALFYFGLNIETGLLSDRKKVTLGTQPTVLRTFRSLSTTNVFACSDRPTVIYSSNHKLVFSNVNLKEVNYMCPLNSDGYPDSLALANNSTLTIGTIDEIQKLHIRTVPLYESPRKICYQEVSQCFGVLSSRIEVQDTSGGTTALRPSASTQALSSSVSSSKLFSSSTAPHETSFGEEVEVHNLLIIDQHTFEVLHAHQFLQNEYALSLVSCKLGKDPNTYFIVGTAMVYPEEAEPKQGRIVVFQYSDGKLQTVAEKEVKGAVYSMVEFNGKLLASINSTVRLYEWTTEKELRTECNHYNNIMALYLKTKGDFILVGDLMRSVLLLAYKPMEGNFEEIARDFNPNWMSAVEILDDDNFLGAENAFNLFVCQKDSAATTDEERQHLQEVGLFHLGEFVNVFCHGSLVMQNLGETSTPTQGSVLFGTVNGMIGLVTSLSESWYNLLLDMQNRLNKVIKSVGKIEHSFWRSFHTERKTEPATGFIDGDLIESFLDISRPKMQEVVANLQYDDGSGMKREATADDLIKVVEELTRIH
T2 sequence (Q13422 whole entry): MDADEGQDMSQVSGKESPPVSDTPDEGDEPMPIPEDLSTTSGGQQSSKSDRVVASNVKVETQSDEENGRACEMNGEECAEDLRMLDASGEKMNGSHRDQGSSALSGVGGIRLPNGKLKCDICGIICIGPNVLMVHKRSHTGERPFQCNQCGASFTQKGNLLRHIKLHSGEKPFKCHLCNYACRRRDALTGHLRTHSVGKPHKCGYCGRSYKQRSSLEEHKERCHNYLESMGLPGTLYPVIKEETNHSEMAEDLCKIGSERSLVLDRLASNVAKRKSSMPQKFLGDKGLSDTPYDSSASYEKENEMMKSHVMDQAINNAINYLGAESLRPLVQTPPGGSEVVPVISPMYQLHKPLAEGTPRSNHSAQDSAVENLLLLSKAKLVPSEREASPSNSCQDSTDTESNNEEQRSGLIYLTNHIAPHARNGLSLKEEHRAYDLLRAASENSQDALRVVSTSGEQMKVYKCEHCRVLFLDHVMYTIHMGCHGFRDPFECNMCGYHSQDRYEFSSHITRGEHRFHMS
The assay is described as follows: Helios Cellular Degradation Assay, Ikaros readout (flow cytometry, Ikaros-Alexa488 antibody staining, 72 h). The following applies: Jurkat cells, 72 h incubation, flow cytometry; for Dmax: Jurkat, read-out: Ikaros Dmax. Format: cell-based. The method, boiled down:
as §1

The text below walks through data of patent US11548870B2, “Compounds useful as inhibitors of helios protein” (Bristol-Myers Squibb Company, priority 2019, dated 2023).

T1 sequence (Q9UKS7 whole entry): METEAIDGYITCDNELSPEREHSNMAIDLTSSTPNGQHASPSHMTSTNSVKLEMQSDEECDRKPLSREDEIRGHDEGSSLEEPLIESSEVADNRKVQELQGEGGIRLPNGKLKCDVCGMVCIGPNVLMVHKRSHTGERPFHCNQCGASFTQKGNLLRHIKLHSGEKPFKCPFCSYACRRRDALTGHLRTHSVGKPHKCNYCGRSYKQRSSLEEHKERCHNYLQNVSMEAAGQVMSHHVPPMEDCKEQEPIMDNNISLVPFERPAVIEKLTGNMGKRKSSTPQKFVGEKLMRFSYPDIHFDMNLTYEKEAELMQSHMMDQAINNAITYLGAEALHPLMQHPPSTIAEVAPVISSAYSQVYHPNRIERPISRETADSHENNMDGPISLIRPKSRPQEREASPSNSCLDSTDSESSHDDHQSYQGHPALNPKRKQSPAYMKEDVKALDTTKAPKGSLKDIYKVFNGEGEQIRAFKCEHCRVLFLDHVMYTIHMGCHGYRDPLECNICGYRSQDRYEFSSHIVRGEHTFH
T1 sequence (Q96SW2 whole entry): as the sequence (Q96SW2 whole entry partner) above
T1 sequence (Q16531 whole entry partner): as the sequence (Q16531 whole entry partner) above

As a reminder, the DC50 is the midpoint of the concentration-degradation curve. A high value points to degradation only at high concentration. One may read the Dmax as the largest share of the target that was removed. In the case of `Cc1ccc(CNCc2ccnc(-c3ccc4c(c3)CN(C3CCC(=O)NC3=O)C4=O)c2)cc1` (stereo not drawn) [Example 58, 3-(5-(4-(((4-methylbenzyl)amino)methyl)pyridin-2-yl)-1-oxoisoindolin-2-yl)piperidine-2,6-dione], in assay [1], the DC50 was 9 nM and the Dmax turned out to be 88%. In assay [2], the DC50 was above 10000 nM and the Dmax worked out at 22%.

In the case of `CN(Cc1ccnc(-c2ccc3c(c2)CN(C2CCC(=O)NC2=O)C3=O)c1)CC1CCCCC1` (stereo not drawn) [Example 59, 3-(5-(4-(((cyclohexylmethyl)(methyl)amino)methyl)pyridin-2-yl)-1-oxoisoindolin-2-yl) piperidine-2,6-dione], in assay [1], the DC50 came to 82 nM and the Dmax was 79%. In addition, in assay [2], the DC50 is above 10000 nM and the Dmax worked out at 20%.

Turning to `O=C1CCC(N2Cc3cc(-c4cc(CN5CCC6CCCC65)ccn4)ccc3C2=O)C(=O)N1` (stereo not drawn) [Example 60, 3-(5-(4-((hexahydrocyclopenta[b]pyrrol-1(2H)-yl)methyl)pyridin-2-yl)-1-oxoisoindolin-2-yl) piperidine-2,6-dione], the DC50 was 548 nM in assay [1] and above 10000 nM in assay [2]. The results for the Dmax in assay [1] and in assay [2] were 63% and 19%, respectively.

`CCCCNCc1ccnc(-c2ccc3c(c2)CN(C2CCC(=O)NC2=O)C3=O)c1` (stereo not drawn) [Example 61, 3-(5-(4-((butylamino)methyl)pyridin-2-yl)-1-oxoisoindolin-2-yl)piperidine-2,6-dione]: in assay [1], it took 12 nM to reach half-maximal degradation (DC50) and the Dmax worked out at 83%. In assay [2], the DC50 is above 10000 nM and the Dmax worked out at 5%.

`CCCNCc1ccnc(-c2ccc3c(c2)CN(C2CCC(=O)NC2=O)C3=O)c1` (stereo not drawn) [Example 62, 3-(1-oxo-5-(4-((propylamino)methyl)pyridin-2-yl)isoindolin-2-yl)piperidine-2,6-dione]: the DC50 is 45 nM in assay [1] and above 10000 nM in assay [2]. For the same compound, the Dmax in assay [1] came to 80%; in assay [2] it was 5%.

Take `O=C1CCC(N2Cc3cc(-c4cc(CNCCc5ccccc5)ccn4)ccc3C2=O)C(=O)N1` (stereo not drawn) [Example 63, 3-(1-oxo-5-(4-((phenethylamino)methyl)pyridin-2-yl)isoindolin-2-yl)piperidine-2,6-dione]: the DC50 in assay [1] is 14 nM; in assay [2], above 10000 nM. Besides, the values for the Dmax in assay [1] and in assay [2] were 80% and 13%, respectively.

Consider `O=C1CCC(N2Cc3cc(-c4cc(CNCC5CC5)ccn4)ccc3C2=O)C(=O)N1` (stereo not drawn) [Example 64, 3-(5-(4-(((cyclopropylmethyl)amino)methyl)pyridin-2-yl)-1-oxoisoindolin-2-yl)piperidine-2,6-dione], for which, in assay [1], the DC50 was determined as 36 nM and the Dmax came out at 73%. Besides, in assay [2], the DC50 was above 10000 nM and the Dmax came out at 1%.

As for `CC(C)(C)CNCc1ccnc(-c2ccc3c(c2)CN(C2CCC(=O)NC2=O)C3=O)c1` (stereo not drawn) [Example 65, 3-(5-(4-((neopentylamino)methyl)pyridin-2-yl)-1-oxoisoindolin-2-yl)piperidine-2,6-dione], in assay [1], the DC50 was 55 nM and the Dmax came to 70%. Also, in assay [2], the 50% degradation concentration (DC50) is above 10000 nM and the Dmax was 7%.

Consider `O=C1CCC(N2Cc3cc(-c4cc(CNCC5CCCO5)ccn4)ccc3C2=O)C(=O)N1` (stereo not drawn) [Example 66, 3-(1-oxo-5-(4-((((tetrahydrofuran-2-yl)methyl)amino)methyl)pyridin-2-yl)isoindolin-2-yl)piperidine-2,6-dione], for which the DC50 in assay [1] and in assay [2] was above 10000 nM in each case. The Dmax in assay [1] was found to be 26%; in assay [2], 7%.

As for `COc1ccc(CNCc2ccnc(-c3ccc4c(c3)CN(C3CCC(=O)NC3=O)C4=O)c2)cc1` (stereo not drawn) [Example 67, 3-(5-(4-(((4-methoxybenzyl)amino)methyl)pyridin-2-yl)-1-oxoisoindolin-2-yl)piperidine-2,6-dione], in assay [1], the DC50 is above 10000 nM and the Dmax stood at 41%. In assay [2], the DC50 is above 10000 nM and the Dmax amounted to 6%.

Consider `COCCNCc1ccnc(-c2ccc3c(c2)CN(C2CCC(=O)NC2=O)C3=O)c1` (stereo not drawn) [Example 68, 3-(5-(4-(((2-methoxyethyl)amino)methyl)pyridin-2-yl)-1-oxoisoindolin-2-yl)piperidine-2,6-dione], for which the DC50 is 192 nM in assay [1] and above 10000 nM in assay [2]. Besides, the Dmax in assay [1] came to 71%; in assay [2] it was 15%.

`C[C@H]1CCCN1Cc1ccnc(-c2ccc3c(c2)CN(C2CCC(=O)NC2=O)C3=O)c1` (stereo partly drawn) [Example 69, 3-(5-(4-(((S)-2-methylpyrrolidin-1-yl)methyl)pyridin-2-yl)-1-oxoisoindolin-2-yl)piperidine-2,6-dione]: the DC50 in assay [1] was 783 nM; in assay [2] it was above 10000 nM. The Dmax amounted to 57% in assay [1] and 0% in assay [2].

On to `C[C@@H]1CCN(Cc2ccnc(-c3ccc4c(c3)CN(C3CCC(=O)NC3=O)C4=O)c2)C1` (stereo partly drawn) [Example 70, 3-(5-(4-(((R)-3-methylpyrrolidin-1-yl)methyl)pyridin-2-yl)-1-oxoisoindolin-2-yl)piperidine-2,6-dione], for which the DC50 in assay [1] is 19 nM; in assay [2], above 10000 nM. For the same compound, the figures for the Dmax in assay [1] and in assay [2] were 79% and 10%, respectively.

For the compound `C[C@@H]1CCCCN1Cc1ccnc(-c2ccc3c(c2)CN(C2CCC(=O)NC2=O)C3=O)c1` (stereo partly drawn) [Example 71, 3-(5-(4-(((R)-2-methylpiperidin-1-yl)methyl)pyridin-2-yl)-1-oxoisoindolin-2-yl)piperidine-2,6-dione], the DC50 in assay [1] and in assay [2] was above 10000 nM throughout. In addition, the results for the Dmax in assay [1] and in assay [2] were 17% and 8%, respectively.

For the compound `C[C@H]1CCN(Cc2ccnc(-c3ccc4c(c3)CN(C3CCC(=O)NC3=O)C4=O)c2)C1` (stereo partly drawn) [Example 72, 3-(5-(4-(((S)-3-methylpyrrolidin-1-yl)methyl)pyridin-2-yl)-1-oxoisoindolin-2-yl) piperidine-2,6-dione], in assay [1], the DC50 worked out at 13 nM and the Dmax was determined as 90%. In assay [2], the DC50 was above 10000 nM and the Dmax was determined as 13%.

Turning to `C[C@H]1CCCN(Cc2ccnc(-c3ccc4c(c3)CN(C3CCC(=O)NC3=O)C4=O)c2)C1` (stereo partly drawn) [Example 73, 3-(5-(4-(((S)-3-methylpiperidin-1-yl)methyl)pyridin-2-yl)-1-oxoisoindolin-2-yl)piperidine-2,6-dione], in assay [1], half-maximal degradation (DC50) was put at 45 nM and the Dmax is 62%. In assay [2], the DC50 is above 10000 nM and the Dmax was 13%.

Take `C[C@H]1CCCCN1Cc1ccnc(-c2ccc3c(c2)CN(C2CCC(=O)NC2=O)C3=O)c1` (stereo partly drawn) [Example 74, 3-(5-(4-(((S)-2-methylpiperidin-1-yl)methyl)pyridin-2-yl)-1-oxoisoindolin-2-yl)piperidine-2,6-dione]: in assay [1], the DC50 came out at 2500 nM and the Dmax came to 53%. In addition, in assay [2], the DC50 is above 10000 nM and the Dmax turned out to be 16%.

Consider `C[C@@H]1CCCN(Cc2ccnc(-c3ccc4c(c3)CN(C3CCC(=O)NC3=O)C4=O)c2)C1` (stereo partly drawn) [Example 75, 3-(5-(4-(((R)-3-methylpiperidin-1-yl)methyl)pyridin-2-yl)-1-oxoisoindolin-2-yl)piperidine-2,6-dione], for which, in assay [1], it took 14 nM to reach half-maximal degradation (DC50) and the Dmax was determined as 94%. For the same compound, in assay [2], the DC50 was above 10000 nM and the Dmax came to 10%.

For `O=C1CCC(N2Cc3cc(-c4cc(CN5CCC5c5ccccc5)ccn4)ccc3C2=O)C(=O)N1` (stereo not drawn) [Example 76, 3-(1-oxo-5-(4-((2-phenylazetidin-1-yl)methyl)pyridin-2-yl)isoindolin-2-yl) piperidine-2,6-dione], in assay [1], the DC50 amounted to 6 nM and the Dmax stood at 98%. In assay [2], the DC50 is above 10000 nM and the Dmax was determined as 12%.

Consider `O=C1CCC(N2Cc3cc(-c4cc(CNC5(C6CC6)CCC5)ccn4)ccc3C2=O)C(=O)N1` (stereo not drawn) [Example 77, 3-(5-(4-(((1-cyclopropylcyclobutyl)amino)methyl)pyridin-2-yl)-1-oxoisoindolin-2-yl)piperidine-2,6-dione], for which the DC50 in assay [1] was 12 nM; in assay [2], above 10000 nM. Besides, the Dmax in assay [1] was 85%; in assay [2], 12%.

As for `CN1C[C@@H]2CN(Cc3ccnc(-c4ccc5c(c4)CN(C4CCC(=O)NC4=O)C5=O)c3)C[C@@H]2C1` (stereo partly drawn) [Example 78, 3-(5-(4-(((3aR,6aS)-5-methylhexahydropyrrolo[3,4-c]pyrrol-2(1H)-yl)methyl)pyridin-2-yl)-1-oxoisoindolin-2-yl)piperidine-2,6-dione], in assay [1], the DC50 is above 10000 nM and the Dmax turned out to be 49%. In addition, in assay [2], the DC50 was above 10000 nM and the Dmax was 0%.

With `O=C1CCC(N2Cc3cc(-c4cc(CN5CC6CC5CO6)ccn4)ccc3C2=O)C(=O)N1` (stereo not drawn) [Example 79, 3-(5-(4-((2-oxa-5-azabicyclo[2.2.1]heptan-5-yl)methyl)pyridin-2-yl)-1-oxoisoindolin-2-yl) piperidine-2,6-dione], the DC50 in assay [1] and in assay [2] was above 10000 nM each time. Moreover, the Dmax worked out at 26% in assay [1] and 8% in assay [2].

Consider `CC1CC(NCc2ccnc(-c3ccc4c(c3)CN(C3CCC(=O)NC3=O)C4=O)c2)CCO1` (stereo not drawn) [Example 80, 3-(5-(4-(((2-methyltetrahydro-2H-pyran-4-yl)amino)methyl)pyridin-2-yl)-1-oxoisoindolin-2-yl)piperidine-2,6-dione], for which, in assay [1], it took 35 nM to reach half-maximal degradation (DC50) and the “Helios Dmax” value stood at 99%. Also, in assay [2], the DC50 was above 10000 nM and the “Ikaros Dmax” value is given as 12%.

For `C[C@@H]1C[C@H](C)CN(Cc2ccnc(-c3ccc4c(c3)CN(C3CCC(=O)NC3=O)C4=O)c2)C1` (stereo partly drawn) [Example 81, 3-(5-(4-(((3S,5R)-3,5-dimethylpiperidin-1-yl)methyl)pyridin-2-yl)-1-oxoisoindolin-2-yl)piperidine-2,6-dione], in assay [1], half-maximal degradation (DC50) was put at 78 nM and the Dmax worked out at 64%. For the same compound, in assay [2], the DC50 is above 10000 nM and the Dmax turned out to be 26%.
